Measured values: ChEMBL document CHEMBL3044952, “Synthesis and insect antifeedant activity of 2-substituted 2,3-dihydrofuran-3-ols and butenolides (Part II)” (1999)

Tests used:
Type in all cases: functional
Pieris brassicae = assay: Antifeedant activity against fifth-instar larval stage of Pieris brassicae fed on compound-treated cabbage leaf disks at 5 mM by two choice assay
Spodoptera frugiperda = assay: Antifeedant activity against Spodoptera frugiperda (fall armyworm) larvae fed on artificial diet containing compound at 100 ppm by two choice assay
Spodoptera exempta = assay: Antifeedant activity against Spodoptera exempta larvae fed on artificial diet containing compound at 100 ppm by two choice assay

Row | Compound | AFI (Pieris brassicae) [%] | AFI (Spodoptera frugiperda) [%] | AFI (Spodoptera exempta) [%]
1 | CC1(C)OC(O)CC1(O)CCc1ccccc1 (configuration not stated) | 5 |  | 
2 | C[C@@H]1CC(O[Si](C)(C)C(C)(C)C)CC[C@@]1(C)CCC1=CC(=O)OC1 (some centres not stated) |  | 12 | 34
3 | CC(=O)OC[C@@]12[C@@H](OC(C)=O)C[C@@H](C)C(C)(C)[C@H]1CCC[C@]21CO1 |  | 15 | 20
4 | COC1CC(O)(CCc2ccccc2)C(C)(C)O1 (configuration not stated) | 23 |  | 
5 | CC1(C)OCCC1(O)CCc1ccccc1 (configuration not stated) | 28 |  | 
6 | CC1(C)OC(=O)CC1(O)CCc1ccccc1 (configuration not stated) | 36 |  | 
7 | CC1(C)OC(=O)C=C1CCc1ccccc1 | 33 |  | 
8 | CCCCCCC1=CC(=O)OC1(C)C | 9 |  | 
9 | CCCCCCC1(O)CC(=O)OC1(C)C (configuration not stated) | 11 |  | 
10 | CC1(C)OC(=O)CC1(O)CCC1CCCCC1 (configuration not stated) | 15 |  | 
11 | O=C1CC(CCC2CCCCC2)CO1 (configuration not stated) | -9.2 |  | 
12 | O=C1C=C(CCC2CCCCC2)CO1 | 35 |  | 
13 | O=C1CC(O)(CCC2CCCCC2)CO1 (configuration not stated) | -4 |  | 
14 | CC1(C)OC(=O)C=C1CCC1CCCCC1 | 26 |  | 
15 | CC(=O)OC[C@@]12[C@@H](OC(C)=O)C[C@@H](C)[C@](C)(C[C@H](O)c3ccoc3)[C@H]1CCC[C@]21CO1 [6,19-DIACETYLTEUMASSILIN] |  | 94 | 38
16 | CC(=O)OC[C@@]12[C@@H](OC(C)=O)C[C@@H](C)[C@](C)(CCC3=CC(=O)OC3)[C@H]1CCC[C@]21CO1 [AJUGARIN I] |  | 47 | 73
17 | CC(=O)OC[C@@]12[C@@H](OC(C)=O)C[C@@H](C)[C@](C)([C@@H]3C[C@H]4C=CO[C@H]4O3)[C@H]1CCC[C@]21CO1 [CLERODIN] |  | 78 | 76
